Experimental data: patent publication US20080031903A1, “METHOD OF TREATING OCULAR INFECTIONS” (priority 2006, published 2008)
“And” between values parts separate entries of the source, which are not always exact repeats. Equal values may be shown once.

What was measured:
Ad5 = assay: Ad5/NZW rabbit ocular model, combined analysis of Examples 3 and 5; format: in vivo; details: n=20 eyes per group, FIG. 12
Ad5 McEwen = assay: Ad5/NZW rabbit ocular model, Example 3 (Ad-R1); format: in vivo
Method: The purpose of this study is to determine the antiviral efficacy of a 100 mg/ml solution of human Intra Venous Immune Globulin (IG) in the Ad5/NZW rabbit ocular model.
Fifteen NZW female rabbits 2-3 lbs were received from Myrtle's Rabbitry, Thompson Station, Tenn. Fifteen rabbits were inoculated in both eyes following general anesthesia with ketamine & xylazine, topical anesthesia with proparacaine, and corneal scarification (12 cross-hatched strokes of a #25 needle) with 50 μl of 3.0×10^7 pfu/ml (1.5×10^6 pfu/eye or 1.5×10^8 vp/eye) of Ad5 McEwen (Stock P3, Feb. 25, 05, 5.3×10^8 pfu/ml). Eyes were closed and gently rubbed for 5 seconds to ensure contact of the virus on all ocular surfaces.
Eyes were cultured for virus after at least 3 hours (Day 0) after infection. Following topical anesthesia with proparacaine, a single cotton-tipped swab was placed into the lower fornix of each eye, rolled over the cornea into the upper fornix to recover adenovirus from the tear film and corneal and conjunctival surfaces. The swabs from each eye were placed individually into tubes containing 1 ml of outgrowth media and were frozen at −70° C. pending plaque assay. On Day 1, rabbits were divided into 3 treatment groups of 5 rabbits each. Two masked solutions were received. One solution contained 100 mg/ml of IG (Gammagard S/D) and one solution contained pharmaceutical grade saline for use as the negative control. The positive antiviral control, 0.5% cidofovir was not masked because of the differences in treatment regimen. The solutions were stored at 4° C. until and during use.
Drops were administered with at least a 1 hour interval between drops. All eyes from all groups were cultured for virus on days 1, 3, 4, 5, 7, 9, 11, and 14 at least one hour after the final doses of the treatments described above. At various times during the course of the experiment, Ad5 titers were determined on A549 cell monolayers using a standard plaque assay. The ocular cultures to be titered were thawed, diluted (1:10) and inoculated onto A549 monolayers. The virus was adsorbed for 3 hours. Following adsorption, 1 ml of media plus 0.5% methylcellulose was added to each well, and the plates were incubated at 37° C. in a 5% CO2-water vapor atmosphere. After 7 days incubation, the cells were stained with 0.5% gentian violet, and the number of plaques were counted under a dissecting microscope (25×). The viral titers were then calculated, and expressed as plaque-forming units per milliliter (pfu/ml).
Analysis of Results: Data were analyzed statistically using True Epistat and/or Minitab statistical software. Outcome measures included: Ad5-Positive Cultures per Total (Overall [Days 1-14]; Early Phase of Infection [Days 1-5]; Late Phase of Infection [Days 7-14]), Daily Viral Titers, Mean Viral Titer (Early Phase of Infection [Days 1-5]; Late Phase of Infection [Days 7-14]), and Duration of Shedding. Significance was established at the p≦0.05 confidence level.
Duration of viral shedding is shown in Table 8 and was statistically analyzed. The duration of viral shedding in IG treated animals was 5.4 days (standard deviation of 0.84 days). In the Cidofovir treated animals, the duration of viral shedding was 5.0 (SD=1.25 days) while it was longer in the normal saline treated group: 7.2 days (SD=1.14 days). The significant finding is represented graphically in FIG. 8. In this analysis, IG was similar to Cidofovir in reducing the duration of viral shedding.

[1] = Days 1-5, Early Phase of Infection
[2] = Days 7-14, Late Phase of Infection

## Nc1ccn(C[C@@H](CO)OCP(=O)(O)O)c(=O)n1 [0.5% Cidofovir, Cidofovir]
Ad5
  Daily Ad5 positive cultures per total, comparison (words): significantly fewer Ad5 positive cultures per total compared with the Saline control on Days 7 and 9
Ad5; listed as cidofovir
  Daily Ad5 positive cultures per total, comparison (words): significant decreases in the number of Ad5 positive cultures per total on Days 7 and 9 compared with the saline treated eyes
Ad5 McEwen; D0
  Daily Ad5 ocular titer, Median: 2350 pfu/ml
  Daily Ad5 ocular titer, TrMean: 2988 pfu/ml
Ad5 McEwen; D0, N 10 eyes
  Daily Ad5 ocular titer, Mean: 3214 pfu/ml
Ad5 McEwen; D 0, after infection, before treatment
  Ad5 ocular viral titer, individual eye: 2450 pfu/ml and 1950 pfu/ml and 4250 pfu/ml and 1100 pfu/ml and 2250 pfu/ml and 6650 pfu/ml and 7200 pfu/ml and 3100 pfu/ml and 2150 pfu/ml and 1040 pfu/ml
Ad5 McEwen; D 1
  Ad5 ocular viral titer, individual eye: 450 pfu/ml (2×) and 475 pfu/ml and 1000 pfu/ml and 5 pfu/ml and 550 pfu/ml (2×) and 1550 pfu/ml and 1800 pfu/ml and 330 pfu/ml
  Daily Ad5 ocular titer, Mean: 716 pfu/ml
  Daily Ad5 ocular titer, Median: 512 pfu/ml
  Daily Ad5 ocular titer, TrMean: 669 pfu/ml
Ad5 McEwen; D 3
  Ad5 ocular viral titer, individual eye: 4250 pfu/ml and 3800 pfu/ml and 2700 pfu/ml and 130 pfu/ml and 9350 pfu/ml and 8200 pfu/ml and 9300 pfu/ml and 100 pfu/ml and 350 pfu/ml and 210 pfu/ml
  Daily Ad5 ocular titer, Mean: 3839 pfu/ml
  Daily Ad5 ocular titer, Median: 3250 pfu/ml
  Daily Ad5 ocular titer, TrMean: 3617 pfu/ml
Ad5 McEwen; D 4
  Ad5 ocular viral titer, individual eye: 650 pfu/ml and 400 pfu/ml and 6700 pfu/ml and 1150 pfu/ml and 4700 pfu/ml and 2350 pfu/ml and 1800 pfu/ml and 25 pfu/ml and 0 pfu/ml and 80 pfu/ml
  Daily Ad5 ocular titer, Mean: 1785 pfu/ml
  Daily Ad5 ocular titer, Median: 900 pfu/ml
  Daily Ad5 ocular titer, TrMean: 1394 pfu/ml
Ad5 McEwen; D 5
  Ad5 ocular viral titer, individual eye: 550 pfu/ml and 10 pfu/ml and 1550 pfu/ml and 0 pfu/ml (3×) and 400 pfu/ml and 1400 pfu/ml and 1100 pfu/ml and 5 pfu/ml
  Daily Ad5 ocular titer, Mean: 501 pfu/ml
  Daily Ad5 ocular titer, Median: 205 pfu/ml
  Daily Ad5 ocular titer, TrMean: 433 pfu/ml
Ad5 McEwen; D 7
  Ad5 ocular viral titer, individual eye: 0 pfu/ml (8×) and 5 pfu/ml and 15 pfu/ml
  Daily Ad5 ocular titer, Mean: 2.00 pfu/ml
  Daily Ad5 ocular titer, Median: 0.00 pfu/ml
  Daily Ad5 ocular titer, TrMean: 0.62 pfu/ml
Ad5 McEwen; D 9
  Ad5 ocular viral titer, individual eye: 0 pfu/ml
  Daily Ad5 ocular titer, Mean: 0.00000 pfu/ml
  Daily Ad5 ocular titer, Median: 0.00000 pfu/ml
  Daily Ad5 ocular titer, TrMean: 0.00000 pfu/ml
Ad5 McEwen; D 11
  Ad5 ocular viral titer, individual eye: 0 pfu/ml
  Daily Ad5 ocular titer, Mean: 0.00000 pfu/ml
  Daily Ad5 ocular titer, Median: 0.00000 pfu/ml
  Daily Ad5 ocular titer, TrMean: 0.00000 pfu/ml
Ad5 McEwen; D 14
  Ad5 ocular viral titer, individual eye: 0 pfu/ml
  Daily Ad5 ocular titer, Mean: 0.00000 pfu/ml
  Daily Ad5 ocular titer, Median: 0.00000 pfu/ml
  Daily Ad5 ocular titer, TrMean: 0.00000 pfu/ml
Ad5 McEwen; Day 0, before treatment
  Positive Cultures per Total: 10/10
  Positive Cultures per Total, percent: 100%
Ad5 McEwen; Day 1
  Positive Cultures per Total: 10/10
  Positive Cultures per Total, percent: 100%
Ad5 McEwen; Day 3
  Positive Cultures per Total: 10/10
  Positive Cultures per Total, percent: 100%
Ad5 McEwen; Day 4
  Positive Cultures per Total: 9/10
  Positive Cultures per Total, percent: 90%
Ad5 McEwen; Day 5
  Positive Cultures per Total: 7/10
  Positive Cultures per Total, percent: 70%
Ad5 McEwen; Day 7
  Positive Cultures per Total: 2/10
  Positive Cultures per Total, percent: 20%
Ad5 McEwen; Day 9
  Positive Cultures per Total: 0/10
  Positive Cultures per Total, percent: 0%
Ad5 McEwen; Day 11
  Positive Cultures per Total: 0/10
  Positive Cultures per Total, percent: 0%
Ad5 McEwen; Day 14
  Positive Cultures per Total: 0/10
  Positive Cultures per Total, percent: 0%
Ad5 McEwen; [1]
  Positive Cultures per Total, Total: 36/40
  Positive Cultures per Total, Total (%): 90%
Ad5 McEwen; Days 1-14
  Positive Cultures per Total, Total: 38/80
  Positive Cultures per Total, Total (%): 47.5%
Ad5 McEwen; Days 1-14, listed as Cidofovir
  Positive Cultures per Total, Total (%): 47.5%
Ad5 McEwen; [2]
  Positive Cultures per Total, Total: 2/40
  Positive Cultures per Total, Total (%): 5%
Ad5 McEwen; Days 7-14, Late Phase of Infection, listed as Cidofovir
  Positive Cultures per Total, Total (%): 5%
Ad5 McEwen; Late Phase
  Mean Combined Ocular Titers Days 7-14, comparison: significantly lower Mean Combined Ocular Titers Days 7-14 compared with NPR
  Positive Cultures per Total Days 7-14, comparison: significantly fewer Positive Cultures per Total Days 7-14 compared with NPR
Ad5 McEwen; compared to Saline control
  Antiviral efficacy, conclusion: demonstrated its proven antiviral efficacy
Ad5 McEwen; days as stated
  Mean Daily Ocular Titers, statistical comparison: significantly lower titers on Days 1 and 7 compared with NPR
Ad5 McEwen; final day with positive Ad5 culture, listed as CDV
  Duration of Shedding, individual eye: 5 days (5×) and 4 days (2×) and 7 days (2×) and 3 days
Ad5 McEwen; mean of 10 eyes
  Duration of viral shedding, group mean: 5.0 days
Ad5 McEwen; rabbit, in vivo
  Mean Duration of Shedding, comparison: significantly shorter durations of shedding compared with the NPR
